For seven molecules, Activity and Km results are on record in ChEMBL document CHEMBL2074536, “Characterization of stably transfected kidney epithelial cell line expressing rat H+/peptide cotransporter PEPT1: localization of PEPT1 and transport of beta-lactam antibiotics” (J Pharmacol Exp Ther, 1997).

Holding throughout (type): functional, cell-based
For data set [1], the target named is T1, Solute carrier family 15 member 1 (Rattus norvegicus) (UniProt P51574).
T1 sequence (whole entry): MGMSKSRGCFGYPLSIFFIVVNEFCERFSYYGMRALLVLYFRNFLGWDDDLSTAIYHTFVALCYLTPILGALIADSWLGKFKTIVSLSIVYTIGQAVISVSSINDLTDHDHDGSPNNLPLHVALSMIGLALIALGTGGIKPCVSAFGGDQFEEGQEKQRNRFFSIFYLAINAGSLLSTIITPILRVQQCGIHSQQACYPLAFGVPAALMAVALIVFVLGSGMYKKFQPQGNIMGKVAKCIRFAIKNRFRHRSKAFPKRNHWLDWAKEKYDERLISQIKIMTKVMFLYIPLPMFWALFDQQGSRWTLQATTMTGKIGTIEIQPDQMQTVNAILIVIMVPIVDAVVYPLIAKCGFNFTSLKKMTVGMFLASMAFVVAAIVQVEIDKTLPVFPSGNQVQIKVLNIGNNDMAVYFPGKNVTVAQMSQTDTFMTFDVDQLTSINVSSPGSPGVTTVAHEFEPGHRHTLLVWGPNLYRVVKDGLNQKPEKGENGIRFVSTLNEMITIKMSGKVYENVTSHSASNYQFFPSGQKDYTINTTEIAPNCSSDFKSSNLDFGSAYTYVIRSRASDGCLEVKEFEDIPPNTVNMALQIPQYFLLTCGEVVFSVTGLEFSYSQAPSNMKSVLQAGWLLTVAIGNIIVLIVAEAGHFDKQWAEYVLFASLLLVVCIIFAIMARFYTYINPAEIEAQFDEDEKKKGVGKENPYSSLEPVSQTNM
The data set can be described thus: (§1) TP_TRANSPORTER: uptake in PEPT1-expressing LLC-PK1 cells.

Data set [2] has as its target T1, Solute carrier family 15 member 1 (Rattus norvegicus). The data set can be described thus: TP_TRANSPORTER: inhibition of Ceftibuten uptake (Ceftibuten: 1000 uM, Bestatin: 10000 uM) in PEPT1-expressing LLC-PK1 cells.
Data set [3] has the same target. The data set can be described thus: TP_TRANSPORTER: inhibition of Cephradine uptake (Cephradine: 1000 uM, Bestatin: 10000 uM) in PEPT1-expressing LLC-PK1 cells.
The target is the same in data set [4]. The data set can be described thus: TP_TRANSPORTER: inhibition of Ceftibuten uptake (Ceftibuten: 1000 uM, Cefixime: 10000 uM) in PEPT1-expressing LLC-PK1 cells.
The target is the same in data set [5]. The data set can be described thus: TP_TRANSPORTER: inhibition of Ceftibuten uptake (Ceftibuten: 1000 uM, Gly-Gly-Phe: 10000 uM) in PEPT1-expressing LLC-PK1 cells.
Data set [6] shares this target. The data set can be described thus: TP_TRANSPORTER: inhibition of Cephradine uptake (Cephradine: 1000 uM, Gly-Gly-Phe: 10000 uM) in PEPT1-expressing LLC-PK1 cells.
The target is the same in data set [7]. The data set can be described thus: TP_TRANSPORTER: inhibition of Ceftibuten uptake (Ceftibuten: 1000 uM, Gly-Leu: 10000 uM) in PEPT1-expressing LLC-PK1 cells.
Data set [8] has the same target. The experiment in a line: TP_TRANSPORTER: inhibition of Cephradine uptake (Cephradine: 1000 uM, Gly-Leu: 10000 uM) in PEPT1-expressing LLC-PK1 cells.
The target is the same in data set [9]. The data set can be described thus: TP_TRANSPORTER: inhibition of Cephradine uptake (Cephradine: 1000 uM, Ceftibuten: 5000 uM) in PEPT1-expressing LLC-PK1 cells.
Data set [10] shares this target. The experiment in a line: TP_TRANSPORTER: inhibition of Ceftibuten uptake (Ceftibuten: 1000 uM, Gly-Sar: 10000 uM) in PEPT1-expressing LLC-PK1 cells.
Data set [11] has the same target. The experiment in a line: TP_TRANSPORTER: inhibition of Cephradine uptake (Cephradine: 1000 uM, Gly-Sar: 10000 uM) in PEPT1-expressing LLC-PK1 cells.
Substrate in data set [12]: Nc1nc(/C(=C/CC(=O)O)C(=O)N[C@@H]2C(=O)N3C(C(=O)O)=CCS[C@H]23)cs1
The description is as §1.

Substrate in data set [13]: CC1=C(C(=O)O)N2C(=O)[C@@H](NC(=O)[C@H](N)C3=CCC=CC3)[C@H]2SC1
The description is as §1.

Where a SMILES comes first, the peptide text is derived from it.

For the molecule `CC(C)C[C@H](NC(=O)[C@@H](O)[C@H](N)Cc1ccccc1)C(=O)O`, the Activity entry in data set [1] is “substrate [+]”; in data set [2], “inhibitor [+]”; in data set [3], “inhibitor [+]”.
`C=CC1=C(C(=O)O)N2C(=O)[C@@H](NC(=O)/C(=N\OCC(=O)O)c3csc(N)n3)[C@H]2SC1`: the Activity entry in [4] is “inhibitor [+]”.
For `NCC(=O)NCC(=O)N[C@@H](Cc1ccccc1)C(=O)O` (H-Gly-Gly-Phe-OH), the Activity entry in data set [5] and in data set [6] was “inhibitor [+]” in each case.
Regarding `CC(C)C[C@H](NC(=O)CN)C(=O)O`, the Activity result in data set [7] and in [8] was “inhibitor [+]” in each case.
Regarding `Nc1nc(/C(=C/CC(=O)O)C(=O)N[C@@H]2C(=O)N3C(C(=O)O)=CCS[C@H]23)cs1`, the Activity result in [9] was “inhibitor [+]”.
Take `CN(CC(=O)O)C(=O)CN` (HELM PEPTIDE1{G.[Sar]}$$$$V2.0): the Activity entry in data set [10] and in [11] was “inhibitor [+]” in each case.

B1: Solute carrier family 15 member 1 (Rattus norvegicus), P51574 (protein)
chain: T1 sequence (whole entry)
As to B1, the Km in data set [12] is 1500 µM; in data set [13] it was 8.2 mM.
